Test results: patent US8216614B2 (The Board of Regents of the University of Texas Systems, priority 2005, dated 2012)
Where two headings read alike, the source gives them in different places.

Assays:
[1] = cited from earlier work; for bone mineral density: early postmenopausal women, Ruml et al., 1999
[2] = Metabolic study on prevention of kidney stone formation: alkali load, urinary stone risk factors, urinary saturation; type: in vivo, human; conditions: two-week phase, 24-hour urine; for urinary ammonium / net gastrointestinal absorption of alkali: change from placebo phase; for net gastrointestinal absorption of alkali: postmenopausal women, constant diet
Source text: A total of eighteen postmenopausal women without kidney stones underwent four phases of study chosen in random order while they were kept on a constant diet in a metabolic ward. […] During last two days of each phase, urine was collected in 24-hour pools for biochemistry and stone risk factors.
Provision of alkali load. […] If an alkali load is delivered, the net gastrointestinal absorption of alkali (calculated from urinary electrolytes) increases and urinary ammonium decreases (as a normal response of kidneys to alkali).

[3] = Metabolic study on preventing bone loss: serum calcium, parathyroid hormone, bone turnover markers; type: in vivo, human; conditions: for decline in markers of bone resorption (urinary hydroxyproline, urinary N-telopeptide, serum type 1 collagen C-telopeptide): change from placebo phase; for serum calcium / serum parathyroid hormone: last two days of two-week phase
Protocol: During the last two days of each two-week phase, serum and 24-hour urine samples were collected for assessment of calcium metabolism, alkali load, and bone turnover markers.
Markers of bone turnover. The effect of treatment on bone resorption (destruction) was evaluated from urinary hydroxyproline, urinary N-telopeptide, and serum type 1 collagen C-telopeptide. These bone-derived substances are called markers of bone resorption, since they are elevated in states of high bone destruction.

[4] = cited from earlier work

| SMILES | bone mineral density [1] | urinary ammonium [2] | net gastrointestinal absorption of alkali [2] | urinary calcium [2] | urinary citrate [2] | urinary oxalate [2] | urinary pH [2] | urinary saturation of calcium oxalate [2] | urinary citrate ([1]; calcium citrate supplementation, literature) | decline in markers of bone resorption (urinary hydroxyproline, urinary N-telopeptide, serum type 1 collagen C-telopeptide) [3] | serum calcium [3] | serum parathyroid hormone [3] | bone density ([4]; Pak et al., 2001) | calcium loss into urine ([4]; Sakhaee et al., 1991) | urinary citrate ([4]; literature) |
| --- | --- | --- | --- | --- | --- | --- | --- | --- | --- | --- | --- | --- | --- | --- | --- |
| O=C([O-])[O-].[Ca+2] [calcium carbonate] | only partially effective | – | – | – | – | – | – | – | – | – | – | – | – | – | – |
| O=C([O-])CC(O)(CC(=O)[O-])C(=O)[O-].O=C([O-])CC(O)(CC(=O)[O-])C(=O)[O-].[Ca+2].[Ca+2].[Ca+2] [calcium citrate] | prevent, though not increase | slightly but significantly decreased | marginally increased | increased | increased in the same direction | decreased significantly | increased marginally | increased marginally | modestly increases | intermediate | increased slightly | significantly decreased | – | – | – |
| O=C([O-])CC(O)(CC(=O)[O-])C(=O)[O-].[K+].[K+].[K+] [potassium citrate] | – | reduced | significantly and substantially increased | decreased | increased in the same direction | unaffected | significantly and substantially rose | declined | – | least prominent | did not change | did not change | increase bone density | prevent calcium loss into urine | effective in increasing urinary citrate |
